Consider 6 molecules from US20230167120A1, “ARYL-FUSED ISOSELENAZOLE COMPOUND CONTAINING TETRAZINE SUBSTITUENT, SYNTHESIS METHOD THEREFOR, AND USE THEREOF” (KEAISE MEDICINE WUHAN CORP., priority 2020, published 2023).

Marks after values point to notes of the source that are not given here.

In experiment [1] the test system is human glioma cells (U87). Nature of the experiment: In-vitro growth inhibition, MTT method, U87. The experiment is classed as cell-based. To be noted: Glioma cell, 48 h. On the procedure:
(§1) The in-vitro growth inhibitory activity of compounds 1 to 8 of the present disclosure against human glioma cells (U87 and LN229), human hepatoma cells (SMMC-7721) and human pancreatic carcinoma cells (Panc1) was studied adopting the MTT method.
U87, LN229, SMMC-7721 and Panc1 cells growing at log phase were separately inoculated into a 96-well plate at a density of 5×10^4 cells/mL, 180 μL/well. […] After 48 h of action, a 5 mg/mL MTT solution (20 μL/well) was added. After the cells were incubated in a CO2 incubator for 3 to 4 h, the supernatant was carefully discarded. After the residual liquid was air-dried, acidified isopropanol (50 μL of concentrated hydrochloric acid dissolved in 500 mL of isopropanol) was added at […], and the plate was shaken on a shaker for 30 min. After the crystals were completely dissolved, absorbance OD values were measured by a microplate reader at 570 nm.
(§2) Cell viability %=(drug-treated cell OD−blank group OD)/(control cell OD−blank group OD)×100
(§3) Cell killing rate %=1−cell viability %

Experiment [2] relates to human glioma cells (LN229). As to the kind of experiment: In-vitro growth inhibition, MTT method, LN229. It is filed as cell-based. To be noted: LN-229, 48 h. As for the experimental part: as §1
(§4) U87, LN229, SMMC-7721 and Panc1 cells growing at log phase were separately inoculated into a 96-well plate at a density of 5×10^4 cells/mL, 180 μL/well. After the cells were attached to the wall, 20 μL of a drug liquid was added to each well, so that the final concentrations of the drug were 0 μM, 5 μM, 10 μM, 20 μM and 50 μM. After 48 h of action, a 5 mg/mL MTT solution (20 μL/well) was added. After the cells were incubated in a CO2 incubator for 3 to 4 h, the supernatant was carefully discarded. After the residual liquid was air-dried, acidified isopropanol (50 μL of concentrated hydrochloric acid dissolved in 500 mL of isopropanol) was added at […], and the plate was shaken on a shaker for 30 min. After the crystals were completely dissolved, absorbance OD values were measured by a microplate reader at 570 nm.
as §2, §3
(Formazan colour is commonly taken as a measure of viable cells.)

Experiment [3] deals with human glioma cell U87. Nature of the experiment: In-vivo antitumor activity, U87 tumor-bearing nude mice, i.g. dosing. The settings on record: temozolomide group 30 mg·kg^−1, i.g., q.d., end of the experiment; for Tumor volume: 11 days. More on the design: species or system Balb/c nude mice. The source says:
The tumor emergence rate was 100%.
The solvent was freshly prepared when needed each day.

Experiment [4] concerns human glioma cell U87. As to the kind of experiment: Tumor volume inhibition rate, i.v. dosing. The experiment is classed as in vivo, Balb/c nude mice. The settings on record: Mus musculus, iv, TMZ 10 mg·kg^−1, i.v. On the procedure:
In addition, low-dosage 0409 (20 mg·kg^−1, i.v.) and TMZ (10 mg·kg^−1, i.v.) were synchronously used for an assay to determine the volume tumor inhibition rate.

Experiment [5] relates to human glioma cell U87. As to the kind of experiment: Pharmacodynamic study in human glioma cell U87 subcutaneous model. The experiment is classed as in vivo, Balb/c nude mice. The settings on record: compounds 20 mg/Kg, q.d.×14 days. The source says:
The route of administration was intragastric administration ([…]., q.d.×14 days).

Experiment [6] has as its system U251MG human glioma cells. As to the kind of experiment: In-vitro anti-cancer activity screening, SRB method, U251MG. It is filed as cell-based. The settings on record: U-251. As for the experimental part:
(§5) Referring to the method of example 9, two tumor cell lines, U251MG and U251TR human glioma cells, were selected, and temozolomide and the compounds of the present disclosure were subjected to in-vitro anti-cancer activity screening using the SRB method.
On the technique in general: Sulforhodamine B stains cellular protein and so reports cell mass.

The subject of experiment [7] is U251TR human glioma cells. Nature of the experiment: In-vitro anti-cancer activity screening, SRB method, U251TR. The experiment is classed as cell-based. To be noted: Glioma cell, drug-resistant strain. As for the experimental part: as §5
Experiment [8] deals with human hepatoma cells (SMMC-7721). Nature of the experiment: In-vitro growth inhibition, MTT method, SMMC-7721. To be noted: 48 h. The experiment is classed as cell-based. On the procedure: as §1, §4, §2, §3
The test system of experiment [9] is human pancreatic carcinoma cells (Panc1). As to the kind of experiment: In-vitro growth inhibition, MTT method, Panc1. It is filed as cell-based. To be noted: PANC-1, 48 h. On the procedure: as §1, §4, §2, §3
Where [10] appears, read: 240 h, Day 10, 20 mg·kg^−1, i.v.
[11] abbreviates: 264 h, Day 11, 20 mg·kg^−1, i.v.
[12] abbreviates: 288 h, Day 12, 20 mg·kg^−1, i.v.
The mark [13] stands for this setting: 312 h, Day 13, 20 mg·kg^−1, i.v.
[14] abbreviates: 336 h, Day 14, 20 mg·kg^−1, i.v.
The mark [15] stands for this setting: 360 h, Day 15, 20 mg·kg^−1, i.v.
Setting [16] is: 384 h, Day 16, 20 mg·kg^−1, i.v.
Where [17] appears, read: 408 h, Day 17, 20 mg·kg^−1, i.v.
Where [18] appears, read: 432 h, Day 18, 20 mg·kg^−1, i.v.

In general, IC50 refers to the point on the concentration scale where inhibition reaches its midpoint. A lower IC50 goes with inhibition by little substance. In general, inhibition in vivo refers to the relative decrease from the control value, in per cent. `Cn1nnc2c(C(N)=O)ncn2c1=O` [TMZ, temozolomide, reference compound]: the IC50 in experiment [1] was 373 ± 24.1 µM; in experiment [2], greater than 500 µM; in [6] it was 431 ± 25.8 µM; in experiment [7], greater than 500 µM. For the same molecule, the Tumor volume is 209.18±57.83 mm^3 in experiment [3] and 209.18 ± 57.83*** mm^3 in experiment [3] (listed as Temozolomide). Further, the “Tumor proliferation inhibition rate” value in [3] was determined as 62.75%. The Tumor weight in experiment [3] and in [3] (listed as Temozolomide) was 0.29 ± 0.07 g throughout. The inhibition in vivo at 20 mg/kg in experiment [4] (setting [10]) was found to be 36.7%; in experiment [4] (setting [11]) it was 58.9%; in experiment [4] (setting [12]), 38%; in [4] (setting [13]) it was 38.1%; in experiment [4] (setting [14]), 24.4%; in experiment [4] (setting [15]), 63.9%. Besides, the inhibition in vivo at 20 mg/kg is 54.3% in [4] (setting [16]), 51% in [4] (setting [17]) and 54.5% in experiment [4] (setting [18]). The Tumor inhibition rate is 6.77% in experiment [5] (Day 1); 38.14% in [5] (Day 4); 54.29% in experiment [5] (Day 7); 46.23% in [5] (Day 10); 14.26% in experiment [5] (Day 14 (end of the experiment)).

Take `Cc1ccc2c(=O)n(CCNC(=O)c3ncn4c(=O)n(C)nnc34)[se]c2c1` [Compound 8, 3,4-dihydro-3-methyl-4-oxo-N-(3(2H)-oxo-6-methyl-1,2-benzisoselenazol-2-yl)-ethyl-imidazo[5,1-d]-1,2,3,5-tetrazine-8-carboxamide]: the IC50 came out at 20.4 ± 3.13 µM in experiment [1]; 13.7 ± 2.52 µM in experiment [2]; 3.35 ± 2.13 µM in experiment [8]; 8.65 ± 3.52 µM in experiment [9]; 9.13 ± 1.52 µM in experiment [6]; 16.2 ± 1.67 µM in experiment [7]. The inhibition in vivo at 20 mg/kg in experiment [4] (setting [10]) was 86.5%; in experiment [4] (setting [11]) it was 86.2%; in experiment [4] (setting [12]), 87.2%; in [4] (setting [13]), 88.2%; in [4] (setting [14]), 92.5%; in [4] (setting [15]), 87.7%. Also, the inhibition in vivo at 20 mg/kg is 87% in [4] (setting [16]), 88.5% in [4] (setting [17]) and 89.1% in [4] (setting [18]). Besides, the Tumor inhibition rate in experiment [5] (Day 1) is listed as −0.20%; in [5] (Day 4) it was 58.48%; in [5] (Day 7) it was 83.03%; in experiment [5] (Day 10) it was 80.92%; in [5] (Day 14 (end of the experiment)), 82.68%.

`COc1ccc2[se]n(CCNC(=O)c3ncn4c(=O)n(C)nnc34)c(=O)c2c1` [Compound 7, 3,4-dihydro-3-methyl-4-oxo-N-(3(2H)-oxo-5-methoxy-1,2-benzisoselenazol-2-yl)-ethyl-imidazo[5,1-d]-1,2,3,5-tetrazine-8-carboxamide]: the IC50 in experiment [1] was 47 ± 2.88 µM; in experiment [2] it was 21.2 ± 1.28 µM; in experiment [8] it was 27 ± 3.22 µM; in experiment [9], 15.7 ± 6.22 µM; in experiment [6] it was 154 ± 5.64 µM; in experiment [7], greater than 500 µM. Moreover, the inhibition in vivo at 20 mg/kg in experiment [4] (setting [10]) came to 22%; in experiment [4] (setting [11]), 29.7%; in experiment [4] (setting [12]) it was 37.5%; in experiment [4] (setting [13]) it was 48%; in experiment [4] (setting [14]) it was 45.5%; in experiment [4] (setting [15]) it was 51.4%. Also, the inhibition in vivo at 20 mg/kg in experiment [4] (setting [16]) is 59.7%; in [4] (setting [17]) it was 46.3%; in experiment [4] (setting [18]) it was 54.7%.

With `Cn1nnc2c(C(=O)NCCn3[se]c4ccc(Cl)cc4c3=O)ncn2c1=O` [Compound 4, 3,4-dihydro-3-methyl-4-oxo-N-(3(2H)-oxo-5-chloro-1,2-benzisoselenazol-2-yl)-ethyl-imidazo[5,1-d]-1,2,3,5-tetrazine-8-carboxamide], the IC50 is 134 ± 15.8 µM in experiment [1]; 44.1 ± 6.09 µM in experiment [2]; 5.6 ± 5.84 µM in experiment [8]; 24.2 ± 11.9 µM in [9]; 126 ± 13.3 µM in experiment [6]; greater than 500 µM in [7]. In addition, the inhibition in vivo at 20 mg/kg came out at 73.5% in experiment [4] (setting [10]); 75.2% in [4] (setting [11]); 74.5% in experiment [4] (setting [12]); 68.8% in experiment [4] (setting [13]); 74% in experiment [4] (setting [14]); 80.6% in [4] (setting [15]). Also, the figures for the inhibition in vivo at 20 mg/kg in experiment [4] (setting [16]), in experiment [4] (setting [17]) and in [4] (setting [18]) were 84.3%, 84.7% and 81%, respectively.

As for `Cn1nnc2c(C(=O)NCCn3[se]c4ccc(Br)cc4c3=O)ncn2c1=O` [Compound 5, 3,4-dihydro-3-methyl-4-oxo-N-(3(2H)-oxo-5-bromo-1,2-benzisoselenazol-2-yl)-ethyl-imidazo[5,1-d]-1,2,3,5-tetrazine-8-carboxamide], the IC50 in experiment [1] worked out at 35.8 ± 6.27 µM; in experiment [2], 14.4 ± 3.89 µM; in experiment [8] it was 7.77 ± 3.28 µM; in experiment [9] it was 4.41 ± 2.89 µM; in experiment [6], 61.7 ± 5.79 µM; in experiment [7] it was 56.2 ± 11.7 µM. The inhibition in vivo at 20 mg/kg in experiment [4] (setting [10]) worked out at 27.1%; in experiment [4] (setting [11]), 27%; in experiment [4] (setting [12]), 36.8%; in [4] (setting [13]) it was 36.8%; in [4] (setting [14]) it was 44.6%; in experiment [4] (setting [15]) it was 59.5%. Moreover, the figures for the inhibition in vivo at 20 mg/kg in experiment [4] (setting [16]), in experiment [4] (setting [17]) and in experiment [4] (setting [18]) were 61.2%, 58.5% and 64.4%, respectively.

Turning to `Cn1nnc2c(C(=O)NCCn3[se]c4ccc(F)cc4c3=O)ncn2c1=O` [Compound 2, 3,4-dihydro-3-methyl-4-oxo-N-(3(2H)-oxo-5-fluoro-1,2-benzisoselenazol-2-yl)-ethyl-imidazo[5,1-d]-1,2,3,5-tetrazine-8-carboxamide], the IC50 was greater than 500 µM in experiment [1]; 52.2 ± 10.7 µM in experiment [2]; 16.4 ± 3.59 µM in experiment [8]; 22.2 ± 8.78 µM in experiment [9]; 363 ± 21.4 µM in experiment [6]; greater than 500 µM in [7]. The inhibition in vivo at 20 mg/kg amounted to 85% in [4] (setting [10]); 84.6% in experiment [4] (setting [11]); 82.9% in experiment [4] (setting [12]); 85.8% in experiment [4] (setting [13]); 86.3% in [4] (setting [14]); 85.8% in experiment [4] (setting [15]). Also, the inhibition in vivo at 20 mg/kg turned out to be 84.4% in [4] (setting [16]), 86.7% in experiment [4] (setting [17]) and 86.5% in experiment [4] (setting [18]).
